Test results from patent US20170056336A1, “CO-TARGETING ANDROGEN RECEPTOR SPLICE VARIANTS AND MTOR SIGNALING PATHWAY FOR THE TREATMENT OF CASTRATION-RESISTANT PROSTATE CANCER” (British Columbia Cancer Agency Branch, priority 2015, published 2017).

Columns and labels:
LNCaP95 xenografts [1] = assay: Immunohistochemistry of harvested xenografts; assay type: in vivo, mice; conditions: immunohistochemistry
[2] = test system: genes regulated by FL-AR and AR-V7 in LNCaP95 cells; assay: Gene expression analysis (quantitative real-time RT-PCR) in LNCaP95 cells; assay type: cell-based, human
[3] = test system: mTOR and AR pathways in LNCaP95 cells; assay: Western blot analysis of mTOR and AR pathways in LNCaP95 cells; assay type: cell-based, human; conditions: LNCaP95 cells
Description: Cells were harvested and whole-cell lysate (10 to 15 ug) was subjected to SDS-PAGE. Antibodies used were: AR (1:1000; Santa Cruz), AR-V7 (1:400; Precision), p110α (1:500; BD Bioscience), p110β (1:1000; abcam), […] (1:1000; abcam), p110δ (1:1000; abcam), UBE2C (Boston Biochem; 1:1000), PTEN (1:1000), pS6 (1:2000), pAktThr308 (1:1000), pAktSer473 (1:2000), p4EBP1 (1:1000), total-Akt (1:1000), total-S6 (1:1000), total-4EBP1 (1:1000), pERK/MAPK (1:1000), total-ERK/MAPK (1:1000) from Cell Signaling technology (Danvers, Mass.). β-actin (1:10,000, Abcam) was used as a loading control.
Protein levels of PSA were undetectable in LNCaP95 cells.

AR NTD [4] = target: T1, AR NTD (Homo sapiens, UniProt P10275); assay: AR NTD transactivation assay in LNCaP95 cells; assay type: cell-based; conditions: 24 h
T1 sequence (P10275 1-558): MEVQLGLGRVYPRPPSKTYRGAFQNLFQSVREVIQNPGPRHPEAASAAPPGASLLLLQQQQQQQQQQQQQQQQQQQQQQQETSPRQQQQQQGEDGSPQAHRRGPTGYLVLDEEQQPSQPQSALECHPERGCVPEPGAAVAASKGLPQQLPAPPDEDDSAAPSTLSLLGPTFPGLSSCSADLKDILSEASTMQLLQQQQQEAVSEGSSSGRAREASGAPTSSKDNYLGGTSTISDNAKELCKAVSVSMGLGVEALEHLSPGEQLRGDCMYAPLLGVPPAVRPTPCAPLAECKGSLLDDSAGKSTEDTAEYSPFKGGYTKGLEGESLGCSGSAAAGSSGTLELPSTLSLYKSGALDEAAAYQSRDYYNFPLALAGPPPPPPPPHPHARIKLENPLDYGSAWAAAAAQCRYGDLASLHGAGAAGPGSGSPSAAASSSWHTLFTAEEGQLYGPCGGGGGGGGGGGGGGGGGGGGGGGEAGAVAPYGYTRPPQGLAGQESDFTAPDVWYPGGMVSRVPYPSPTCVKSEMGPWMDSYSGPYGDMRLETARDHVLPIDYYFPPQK
Description: (§1) Transactivation assays of the AR NTD were performed in LNCaP and LNCaP95 cells cotransfected with p5xGal4UAS-TATA-luciferase and AR NTD-Gal4DBD (FIG. 2D). […] LNCaP95 cells were harvested 24 h after the treatment of indicated compounds.
(§2) The AR NTD is essential for full transcriptional activities (Quayle, S. N. et. al., PNAS 2007, 104, 1331-1336). In LNCaP cells, transactivation of the AR NTD can be induced with IL-6 or by stimulation of the PKA pathway with FSK. In LNCaP95 cells, there is high intrinsic activity of the AR NTD which cannot be further induced by stimulation of these pathways.

LNCaP95 xenografts [5] = assay: Western blot analyses of protein lysates from xenografts; assay type: in vivo, mice
AR NTD [6] = target: T1, AR NTD; assay: AR NTD transactivation assay in LNCaP cells; assay type: cell-based; conditions: 24 h
Description: as §1, §2

AR-V567 = target: T2, AR-V567 (Homo sapiens, UniProt P10275); assay: PB-luciferase assay in Cos-1 cells transfected with AR-V567; assay type: cell-based; conditions: 24 h, serum-free
T2 construct: expressed in transfected cells; host or cells: Cos-1
T2 sequence (P10275 with tags, fused parts or gaps limits assumed): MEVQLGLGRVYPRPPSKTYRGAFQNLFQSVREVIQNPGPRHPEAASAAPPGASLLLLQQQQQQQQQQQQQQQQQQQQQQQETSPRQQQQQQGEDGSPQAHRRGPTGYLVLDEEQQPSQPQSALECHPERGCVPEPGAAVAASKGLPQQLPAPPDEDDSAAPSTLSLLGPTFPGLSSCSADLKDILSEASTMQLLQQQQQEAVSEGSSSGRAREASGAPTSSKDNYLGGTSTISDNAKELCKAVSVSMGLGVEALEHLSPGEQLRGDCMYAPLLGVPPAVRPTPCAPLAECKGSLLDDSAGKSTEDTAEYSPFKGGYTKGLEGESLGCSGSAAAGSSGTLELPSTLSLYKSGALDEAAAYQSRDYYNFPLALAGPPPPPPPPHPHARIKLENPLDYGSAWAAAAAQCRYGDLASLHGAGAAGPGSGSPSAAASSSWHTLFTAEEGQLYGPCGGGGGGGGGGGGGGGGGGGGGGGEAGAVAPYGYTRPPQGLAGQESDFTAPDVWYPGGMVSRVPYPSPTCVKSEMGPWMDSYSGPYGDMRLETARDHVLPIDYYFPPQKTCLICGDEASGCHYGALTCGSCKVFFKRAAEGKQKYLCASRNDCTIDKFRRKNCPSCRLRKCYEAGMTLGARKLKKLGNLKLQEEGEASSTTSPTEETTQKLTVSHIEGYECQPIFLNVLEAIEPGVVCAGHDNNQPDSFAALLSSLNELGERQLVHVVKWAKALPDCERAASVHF
From the text: Ectopic protein levels of AR-V7 and AR-V567 in Cos-1 cells are shown relative to endogenous levels of FL-AR in LNCaP cells.

[7] = absence of androgen, BEZ-235 15 nM
[8] = harvested tumors, Compound A 100 mg/kg, BEZ-235 5 mg/kg
[9] = xenografts harvested 1 h after last treatment, BEZ-235 5 mg/kg
[10] = BEZ-235 orally daily at 5 mg/kg body weight

Cn1c(=O)n(-c2ccc(C(C)(C)C#N)cc2)c2c3cc(-c4cnc5ccccc5c4)ccc3ncc21 [BEZ-235, 2-methyl-2-[4-(3-methyl-2-oxo-8-quinolin-3-ylimidazo[4,5-c]quinolin-1-yl)phenyl]propanenitrile]
UBE2C staining (LNCaP95 xenografts [1]): reduced
pS6 staining (LNCaP95 xenografts [1]): reduced
TMPRSS2 or FKBP5 transcripts in response to BEZ-235 [2]: No similar effects
levels of FL-AR transcript [2]: did not increase
increase in transcript levels of AR-V7 ([2]; absence of androgen): greater than 2 fold
levels of PSA transcript ([2]; absence of androgen): induced
transcript levels of AR-V7 target genes (UBE2C, CDC20, Akt1) ([2]; absence of androgen): consistently reduced
androgen-induced levels of PSA transcripts ([2]; compared to androgen alone): significantly increased
UBE2C levels ([2]; monotherapy, regardless of androgen): attenuated
pAkt ([3]; 500 nM BEZ-235): inhibited
levels of UBE2C ([3]; 48 h): decreased
pAkt ([3]; BEZ-235 15 nM, everolimus): did not impact
levels of AR-V7 [3, 7]: increased
levels of FL-AR [3, 7]: increased
protein levels of FL-AR ([3]; titration experiments): increased
pS6 ribosomal protein ([3]; titration, BEZ-235 15 nM, everolimus 10 nM): inhibited
intrinsic activity of AR NTD (AR NTD [4]): no effect
levels of p4EBP1 (LNCaP95 xenografts [5]; harvested tumors, normalized to total 4EBP1): no significant change
levels of pAkt (LNCaP95 xenografts [5]; harvested tumors, normalized to total Akt): no significant change
protein levels of UBE2C (LNCaP95 xenografts [5]; [8]): reduced
protein levels of pS6 (LNCaP95 xenografts [5]; [8]): reduced
protein levels of FKBP5 (LNCaP95 xenografts [5]; in vivo, monotherapies): reduced
protein levels of AR-V7 (LNCaP95 xenografts [5]; [9]): reduced
protein levels of FL-AR (LNCaP95 xenografts [5]; [9]): reduced
AR-NTD transactivation induced by FSK (AR NTD [6]; FSK 50 uM): no effect
AR-NTD transactivation induced by IL-6 (AR NTD [6]; IL-6 50 ng/ml): significantly inhibited
transcriptional activity of AR-V567 (AR-V567): no effect
mortality of the animals (BEZ-235 45 mg/kg body weight): 66%
mTOR in tumors [10]: sufficient to block
pAkt in tumors [10]: not
toxicity [10]: non-toxic
